Measured values reported in PubChem BioAssay AID2060497 (Molecular Pharmacology Branch, DTP, NCI, 2025).

System: 317291-083-R-J1-PDC complex spheroids, viability
Assay: Anticancer human tumor 317291-083-R-J1-PDC patient-derived soft tissue sarcoma cell line growth inhibition [GQUAD]
Conditions: for IC50: curve of first compound; for viability, T/C: stronger effect = lower value
Procedure, shortened: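 Viability of tumor cells grown as complex spheroids with endothelial and stromal cells, exposed to drug combinations. Top concentration at or near clinical Cmax (else 10 microM), diluted in half-log increments.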

[1] = second compound 0.0316 µM, first compound 0.0316 µM
[2] = second compound 0.0316 µM, first compound 0.1 µM
[3] = second compound 0.0316 µM, first compound 0.316 µM
[4] = second compound 0.0316 µM, first compound 1 µM
[5] = second compound 0.0316 µM, first compound 3.16 µM
[6] = second compound 0.0316 µM, first compound 10 µM
[7] = second compound 0.1 µM, first compound 0.0316 µM
[8] = second compound 0.1 µM, first compound 0.1 µM
[9] = second compound 0.1 µM, first compound 0.316 µM
[10] = second compound 0.1 µM, first compound 1 µM
[11] = second compound 0.1 µM, first compound 3.16 µM
[12] = second compound 0.1 µM, first compound 10 µM
[13] = second compound 0.316 µM, first compound 0.0316 µM
[14] = second compound 0.316 µM, first compound 0.1 µM
[15] = second compound 0.316 µM, first compound 0.316 µM
[16] = second compound 0.316 µM, first compound 1 µM
[17] = second compound 0.316 µM, first compound 3.16 µM
[18] = second compound 0.316 µM, first compound 10 µM
[19] = second compound 1 µM, first compound 0.0316 µM
[20] = second compound 1 µM, first compound 0.1 µM
[21] = second compound 1 µM, first compound 0.316 µM
[22] = second compound 1 µM, first compound 1 µM
[23] = second compound 1 µM, first compound 3.16 µM
[24] = second compound 1 µM, first compound 10 µM
[25] = second compound 3.16 µM, first compound 0.0316 µM
[26] = second compound 3.16 µM, first compound 0.1 µM
[27] = second compound 3.16 µM, first compound 0.316 µM
[28] = second compound 3.16 µM, first compound 1 µM
[29] = second compound 3.16 µM, first compound 3.16 µM
[30] = second compound 3.16 µM, first compound 10 µM
[31] = second compound 10 µM, first compound 0.0316 µM
[32] = second compound 10 µM, first compound 0.1 µM
[33] = second compound 10 µM, first compound 0.316 µM
[34] = second compound 10 µM, first compound 1 µM
[35] = second compound 10 µM, first compound 3.16 µM
[36] = second compound 10 µM, first compound 10 µM
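Further: spheroids exposed to compounds for one week before readout.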
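Wherever viability, T/C is given: percent viability relative to DMSO vehicle wells taken as 100%.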

C=CCn1c(=O)c2cnc(Nc3ccc(N4CCN(C)CC4)cc3)nc2n1-c1cccc(C(C)(C)O)n1 + CN(C)c1ccc(Nc2c3ccc(NC(=O)CCN4CCCC4)cc3nc3cc(NC(=O)CCN4CCCC4)ccc23)cc1
IC50 (second compound 0.0316 µM): 147 nM
IC50 (second compound 0.1 µM): 110 nM
IC50 (second compound 0.316 µM): 34.6 nM
IC50 (second compound 1 µM): < 31.6 nM
IC50 (second compound 3.16 µM): < 31.6 nM
IC50 (second compound 10 µM): < 31.6 nM
viability, T/C [1]: 87.1%
viability, T/C [2]: 64.3%
viability, T/C [3]: 21.7%
viability, T/C [4]: 14.2%
viability, T/C [5]: 8.78%
viability, T/C [6]: 8.84%
viability, T/C [7]: 82.5%
viability, T/C [8]: 52%
viability, T/C [9]: 25.7%
viability, T/C [10]: 12.4%
viability, T/C [11]: 9.4%
viability, T/C [12]: 8.71%
viability, T/C [13]: 51.3%
viability, T/C [14]: 34.4%
viability, T/C [15]: 14.4%
viability, T/C [16]: 7.47%
viability, T/C [17]: 7.01%
viability, T/C [18]: 5.2%
viability, T/C [19]: 31.1%
viability, T/C [20]: 14.4%
viability, T/C [21]: 8.51%
viability, T/C [22]: 2.77%
viability, T/C [23]: 1.74%
viability, T/C [24]: 1.3%
viability, T/C [25]: 2.02%
viability, T/C [26]: 1.03%
viability, T/C [27]: 0.41%
viability, T/C [28]: 3.62%
viability, T/C [29]: 0.31%
viability, T/C [30]: 0.14%
viability, T/C [31]: 0.27%
viability, T/C [32]: 0.13%
viability, T/C [33]: 0.18%
viability, T/C [34]: 0.15%
viability, T/C [35]: 0.21%
viability, T/C [36]: 0.15%

Cc1cccc(N(C)C(=O)C2C(O)CCN2c2nc(C)cc(C(F)(F)F)c2C#N)c1 (centres undefined) + Cc1cnc(CNC(=O)c2c(=O)c3ccc(N4CCCN(C)CC4)nc3n3c2sc2ccccc23)cn1
IC50 (second compound 0.0316 µM): > 10000 nM
IC50 (second compound 0.1 µM): > 10000 nM
IC50 (second compound 0.316 µM): 4450 nM
IC50 (second compound 1 µM): < 31.6 nM
IC50 (second compound 3.16 µM): < 31.6 nM
IC50 (second compound 10 µM): < 31.6 nM
viability, T/C [1]: 118%
viability, T/C [2]: 81.9%
viability, T/C [3]: 89.3%
viability, T/C [4]: 84.5%
viability, T/C [5]: 85.2%
viability, T/C [6]: 80.2%
viability, T/C [7]: 78.7%
viability, T/C [8]: 58.7%
viability, T/C [9]: 62.3%
viability, T/C [10]: 74%
viability, T/C [11]: 56%
viability, T/C [12]: 61.2%
viability, T/C [13]: 41.6%
viability, T/C [14]: 83.8%
viability, T/C [15]: 48%
viability, T/C [16]: 43.2%
viability, T/C [17]: 64%
viability, T/C [18]: 35.5%
viability, T/C [19]: 38.2%
viability, T/C [20]: 29.7%
viability, T/C [21]: 37.7%
viability, T/C [22]: 28.5%
viability, T/C [23]: 37.9%
viability, T/C [24]: 30.1%
viability, T/C [25]: 25.4%
viability, T/C [26]: 22.3%
viability, T/C [27]: 16.1%
viability, T/C [28]: 18.2%
viability, T/C [29]: 28.9%
viability, T/C [30]: 33.5%
viability, T/C [31]: 33.2%
viability, T/C [32]: 35.5%
viability, T/C [33]: 24.4%
viability, T/C [34]: 42.2%
viability, T/C [35]: 28.8%
viability, T/C [36]: 52.6%
